The values below come from patent US20120022151A1, “METHOD FOR PREVENTING DAMAGE TO NUCLEAR MEMBRANE OF SKIN CELL BY ADMINISTERING AMENTOFLAVONE” (Amorepacific Corporation, priority 2010, published 2012).

Common to all, as to format: cell-based
The test system of one test is cells of the subject. Kind of test: Immunofluorescence staining of lamin A: nuclear damage after UVB radiation. To be noted: 5 μM amentoflavone prior to UVB 100 mJ/cm^2; cultured 6 days; cells of the subject (FIG. 3). The procedure:
(§1) Cells of subjects […] were distributed in a 4-well chamber slide holding a medium prepared by adding 1% LSGS and 100 IU penicillin G to 106 medium at 100,000 cells/well. The cells were divided into a UVB-untreated negative control group, a UVB-treated group and a UVB/amentoflavone-treated group. The next day, the medium was replaced with 106 medium containing 1%
(§2) FBS. The amentoflavone-treated group was treated with 5 μM amentoflavone prior to UVB radiation. 24 hours later, after washing the well with PBS, UVB was irradiated at 100 mJ/cm^2 to the test groups. Then, after treating again with 106 medium containing 1% FBS, the cells were cultured at 37° C. for 6 days. The treated cells were subjected to western blot and immunofluorescence staining. For western blot, the cells were lysed using RIPA buffer (Sigma) and proteins were quantitated according to the Lowry's method. 10 μg of each protein was run on 4-12% Nupage gel (Invitrogen) and then transferred to NC membrane. The membrane was blocked with 5% BSA and reacted O/N at 4° C. with the lamin A mutant antibodies, progerin (Abcam) and p-H2AX (Millipore), diluted at 1:300 and 1:200, respectively, with 5% BSA. […] Then, after washing 3 times for 10 minutes with PBST, bands were detected using ECL and LAS3000. […]

The subject of the next test is phosphorylated H2AX. Kind of test: Immunofluorescence staining of phosphorylated H2AX after UVB radiation. To be noted: 5 μM amentoflavone prior to UVB 100 mJ/cm^2; cultured 6 days; cells of the subject (FIG. 3). The procedure:
as §1, §2

Test [1] has as its system progerin (mutant lamin A). Nature of the test: Western blot of progerin (mutant lamin A) induced by UVB radiation. The conditions noted are these: 5 μM amentoflavone prior to UVB 100 mJ/cm^2; cultured 6 days; cell extract from subject (FIG. 2). As for the experimental part:
as §1
FBS. The amentoflavone-treated group was treated with 5 μM amentoflavone prior to UVB radiation. 24 hours later, after washing the well with PBS, UVB was irradiated at 100 mJ/cm^2 to the test groups. Then, after treating again with 106 medium containing 1% FBS, the cells were cultured at 37° C. for 6 days. The treated cells were subjected to western blot and immunofluorescence staining. For western blot, the cells were lysed using RIPA buffer (Sigma) and proteins were quantitated according to the Lowry's method. 10 μg of each protein was run on 4-12% Nupage gel (Invitrogen) and then transferred to NC membrane. The membrane was blocked with 5% BSA and reacted O/N at 4° C. with the lamin A mutant antibodies, progerin (Abcam) and p-H2AX (Millipore), diluted at 1:300 and 1:200, respectively, with 5% BSA. […] Then, after washing 3 times for 10 minutes with PBST, bands were detected using ECL and LAS3000.

Regarding `O=c1cc(-c2ccc(O)c(-c3c(O)cc(O)c4c(=O)cc(-c5ccc(O)cc5)oc34)c2)oc2cc(O)cc(O)c12` [Amentoflavone], the “structure of the cell nucleus (nuclear damage caused by lamin A defects), immunofluorescence” value with cells of the subject was “retained”. In addition, in the test with phosphorylated H2AX, the “expression of phosphorylated H2AX, immunofluorescence” value is recorded as “reduced”. Further, the “UVB-induced increase of progerin (mutant lamin A), western blot” value in test [1] is “decreased”.
